These results are taken from PubChem BioAssay AID1949 (Southern Research Institute, 2009).

For this experiment, the system named is M. tuberculosis H37Rv growth inhibition. As to the kind of experiment: Confirmatory growth inhibition assay against Mycobacterium tuberculosis H37Rv, potency (AID 1949).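 Further: bacteria grown 7 days with compound before Alamar blue readout.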

Values after ≈ are worked out from the molar mass of the structure shown. Records with an inconclusive call do not appear. Active and inactive are the calls of the source. How the calls were made is not given here.

On to `CCc1nc2ccccc2n1CCCOc1ccccc1`, for which the 50% inhibitory concentration (IC50) was 0.5 µg/mL (≈ 1.78 µM). To `Cc1nc(SCC(=O)N2CCC(C)CC2)c2c3c(sc2n1)CCC3` belongs > 50 µg/mL (inactive); to `Nc1ncnc(Sc2nc3ccccc3s2)c1[N+](=O)[O-]`, 0.5 µg/mL (≈ 1.64 µM). For the compound `COc1cc(/C=C/[N+](=O)[O-])ccc1OC(=O)c1ccco1`, the concentration for half-maximal inhibition (IC50) is 22.6 µg/mL (≈ 78.1 µM). In the case of `O=C(Nc1ccccc1N1CCCC1)c1ccc(-c2cccc(Cl)c2)o1`, the IC50 is 6.01 µg/mL (≈ 16.4 µM).

For `O=C(CSc1ccccc1)c1ccc([N+](=O)[O-])cc1`, the IC50 is 9.78 µg/mL (≈ 35.8 µM). In the case of `COC(=O)COc1ccc(NC(=O)CSc2ccc(Cl)cc2)cc1`, the IC50 is 0.77 µg/mL (≈ 2.1 µM). For `CCOC(=O)c1ccc(NC(=S)NC(=O)CCc2ccccc2)cc1` the value was 1.76 µg/mL (≈ 4.94 µM). For `NC(=O)c1c(NC(=O)c2c(F)c(F)c(F)c(F)c2F)sc2c1CCC2` the value was 2.77 µg/mL (≈ 7.36 µM). For the compound `CCOc1ccc(Nc2nc(-c3sc(C)nc3C)cs2)cc1`, the IC50 is 3.38 µg/mL (≈ 10.2 µM). Consider `O=[N+]([O-])c1ccccc1S(=O)(=O)Nc1ccc(S(=O)(=O)Nc2nccs2)cc1`, for which the IC50 was 3.8 µg/mL (≈ 8.63 µM). For the compound `CCCOc1ccccc1-c1nc(SCC(=O)OCC)n[nH]1`, the half-maximal inhibitory concentration (IC50) is 1.86 µg/mL (≈ 5.79 µM).

As for `Cc1cc(OCCCCn2ccnc2)cc(C(C)C)c1`, the IC50 was 2.03 µg/mL (≈ 7.45 µM).

For `O=C(NCCc1c[nH]c2ccccc12)Nc1ccc(Cl)c(Cl)c1`, the IC50 is 3.69 µg/mL (≈ 10.6 µM). For the compound `CC1=CC(C)(C)Nc2ccc(OC(=O)c3cccnc3)cc21`, the IC50 is 2.88 µg/mL (≈ 9.78 µM). Consider `CCN1CCN(c2ccc([N+](=O)[O-])c(-n3nc(-c4ccc(Cl)cc4)c4ccccc4c3=O)c2)CC1`, for which the IC50 was 5.6 µg/mL (≈ 11.4 µM). Consider `CCc1cc(I)ccc1NC(=O)c1ccc([N+](=O)[O-])o1`, for which the IC50 was 1.61 µg/mL (≈ 4.17 µM). For `CCCCN1CCC(O)(c2ccccc2)C(C(=O)c2ccccc2)C1` (configuration not stated) the value was 11.4 µg/mL (≈ 33.9 µM); for `O=C(CN1CCN(CCN2C(=O)c3cccc4cccc(c34)C2=O)CC1)c1ccc(Cl)cc1`, 6.6 µg/mL (≈ 14.3 µM). For the compound `CCOC(=O)c1sc(NC(=O)NC2CCCCC2)cc1C`, the 50% inhibitory concentration (IC50) was 0.75 µg/mL (≈ 2.42 µM). On to `N#Cc1cc2c(nc1SCC(=O)OCc1ccccc1)CCC2`, for which the IC50 is 0.41 µg/mL (≈ 1.26 µM). Regarding `O=C(Nc1ccc(Cl)cc1)Nc1ccc(F)c(F)c1`, the IC50 was 0.94 µg/mL (≈ 3.33 µM). Take `CC(C)Oc1ccc(Nc2ncnc3ccc(Br)cc23)cc1`: the IC50 was 2.5 µg/mL (≈ 6.98 µM). To `COC(=O)COc1ccc(NC(=O)c2ccccc2I)cc1` belongs 0.62 µg/mL (≈ 1.51 µM); to `Cc1ccc(C(=O)NCCC2=CCCCC2)cc1I`, 2.92 µg/mL (≈ 7.91 µM). Regarding `CCN(CC)CCC(=O)c1ccc(C(C)C)cc1`, the IC50 is 47.6 µg/mL (≈ 193 µM).

For the compound `Cc1ccc(OCC(=O)c2ccc(C)cc2)cc1`, the IC50 is 50 µg/mL (≈ 208 µM). In the case of `CCOC(=O)C(C)Oc1ccc2c(=O)c(-c3ccc(Cl)cc3)coc2c1` (configuration not stated), the IC50 was > 50 µg/mL (inactive). `Cc1ccc(C(=O)N2CCN(c3ccc(NC(=O)COc4c(C)cc(C)cc4Br)cc3)CC2)cc1`: the IC50 was 1.34 µg/mL (≈ 2.5 µM).

On to `COc1ccc(C(=O)CCN2CCCC(C)C2)cc1` (configuration not stated), for which the IC50 was 35 µg/mL (≈ 134 µM). To `CCC(C)c1ccccc1OCC(=O)Nc1ccc(Cl)cc1` (configuration not stated) belongs 4.68 µg/mL (≈ 14.7 µM). To `Cc1ccc(SCCNC(=S)Nc2ccc(Nc3ccccc3)cc2)cc1` belongs 4.03 µg/mL (≈ 10.2 µM). As to `O=C(CC1CCCCC1)c1c(O)c2ccccc2oc1=O`, the IC50 is > 50 µg/mL (inactive). Turning to `O=C(NCCc1c[nH]c2ccccc12)C(Cl)Cl`, the concentration for half-maximal inhibition (IC50) is 2.63 µg/mL (≈ 9.7 µM). For `CCC(C)c1ccccc1OCCCNC1CCCC1` (configuration not stated) the value was 8.81 µg/mL (≈ 32 µM).

Take `Clc1ccc(OCCn2ccnc2)cc1Cl`: the IC50 is 7.53 µg/mL (≈ 29.3 µM). As to `Nc1nc2ccccc2n1CCOc1cccc2ccccc12`, the IC50 was 4.95 µg/mL (≈ 16.3 µM).

For `O=C(Nc1ccc(C(F)(F)F)cc1)Nc1cccc(F)c1`, the IC50 is 0.76 µg/mL (≈ 2.55 µM). With `CCCc1cc(C(=O)OC)c(NC(=O)c2cc3ccccc3oc2=O)s1`, the half-inhibitory concentration (IC50) is 39.4 µg/mL (≈ 106 µM). Consider `Cc1ccc(CNC(=O)c2ccc(C)cc2Cl)cc1`, for which the IC50 is > 50 µg/mL (inactive). Regarding `CCc1nc2ccccc2n1CC(O)COc1ccc(I)cc1` (configuration not stated), the IC50 is 1.97 µg/mL (≈ 4.67 µM). To `CCOC(=O)COc1ccc2c(c1)c(C(C)=O)c(C)n2Cc1ccccc1` belongs 24.9 µg/mL (≈ 68.2 µM); to `COC(=O)C(C)Oc1ccc2c(=O)c(Oc3ccc(OC)cc3)coc2c1` (configuration not stated), 5.99 µg/mL (≈ 16.2 µM). With `Fc1cc(Br)cc2c1NC(c1cccnc1)C1CC=CC21` (configuration not stated), the IC50 was > 50 µg/mL (inactive). To `CCOc1ccc(OCc2ccc(C(=O)Nc3ccc(Cl)cn3)o2)cc1` belongs 19.9 µg/mL (≈ 53.5 µM). For `COC(=O)c1ccc(OC(=O)c2ccc(C)c([N+](=O)[O-])c2)cc1`, the IC50 was > 50 µg/mL (inactive). Turning to `OCc1cn(-c2ccccc2)nc1-c1ccc2ccccc2c1`, the IC50 was 4.25 µg/mL (≈ 14.1 µM). Regarding `CCCn1c2ccccc2c2nc3ccccc3nc21`, the IC50 is > 50 µg/mL (inactive). On to `COC(=O)COc1ccc2c(=O)c(Oc3cnn(-c4ccccc4)c3)c(C)oc2c1`, for which the IC50 was 3.89 µg/mL (≈ 9.57 µM). In the case of `O=C(Oc1ccc(C2CCCCC2)cc1)c1cccs1`, the IC50 was 13.3 µg/mL (≈ 46.4 µM). Consider `CCOC(=O)c1ccc2nc(C)cc(Nc3ccc(N4CCCCC4)cc3)c2c1`, for which the IC50 was 2.41 µg/mL (≈ 6.19 µM).

Turning to `COc1ccc2c(c1)CCC1Sc3ccccc3N=C21` (configuration not stated), the IC50 was 1.43 µg/mL (≈ 5.08 µM).
